In ChEMBL document CHEMBL3792312, “Synthesis and docking studies of pyrazine-thiazolidinone hybrid scaffold targeting dormant tuberculosis” (Bioorg Med Chem Lett, 2016):
Values after ≈ are worked out from the molar mass of the structure shown.

Tests used:
[1] = system: Mycobacterium tuberculosis; assay: Antitubercular activity against dormant Mycobacterium tuberculosis H37Ra at 30 ug after 12 days by XTT-Menadione assay; format: functional
[2] = (§1) Cytotoxicity against human MCF7 cells after 4 days by MTT assay; format: cell-based; conditions: human, MCF7 cells; read-out: MIC
MCF7 = assay: as §1; format: cell-based; conditions: Homo sapiens, MCF7, 96 h
Bacillus subtilis [3] = assay: Antibacterial activity against Bacillus subtilis at 3 ug after 12 hrs; format: functional
[4] = Cytotoxicity against human THP1 cells after 5 days by MTT assay; format: cell-based, THP-1; conditions: for IC50: Homo sapiens, THP-1, 120 h; for MCC at 120 h: human, THP1 cells, read-out: MIC
Pseudomonas fluorescens [5] = assay: Antibacterial activity against Pseudomonas fluorescens at 3 ug after 8 hrs; format: functional
Escherichia coli [6] = assay: Antibacterial activity against Escherichia coli at 10 ug after 8 hrs; format: functional
[7] = Cytotoxicity against human PANC1 cells after 5 days by MTT assay; format: cell-based, PANC-1; conditions: for IC50: Homo sapiens, PANC-1, 120 h; for MCC at 120 h: human, PANC1 cells, read-out: MIC
Escherichia coli [8] = assay: Antibacterial activity against Escherichia coli at 3 ug after 8 hrs; format: functional
[9] = system: Mycobacterium tuberculosis; assay: Antitubercular activity against dormant Mycobacterium tuberculosis H37Ra at 10 ug after 12 days by XTT-Menadione assay; format: functional
Staphylococcus aureus [10] = assay: Antibacterial activity against Staphylococcus aureus at 30 ug after 12 hrs; format: functional
[11] = system: Mycobacterium tuberculosis; assay: Antitubercular activity against dormant Mycobacterium tuberculosis H37Ra after 12 days by XTT-Menadione assay; format: functional, organism-based; conditions: 288 h
Pseudomonas fluorescens [12] = assay: Antibacterial activity against Pseudomonas fluorescens at 10 ug after 8 hrs; format: functional
Pseudomonas fluorescens [13] = assay: Antibacterial activity against Pseudomonas fluorescens at 30 ug after 8 hrs; format: functional
[14] = system: Mycolicibacterium smegmatis; assay: Antitubercular activity against dormant Mycobacterium smegmatis MC2 155 at 30 ug after 12 days by XTT-Menadione assay; format: functional, str. MC2 155
Bacillus subtilis [15] = assay: Antibacterial activity against Bacillus subtilis at 10 ug after 12 hrs; format: functional
[16] = (§2) Cytotoxicity against human A549 cells after 3 days by MTT assay; format: cell-based; conditions: human, A549 cells; read-out: MIC
A549 = assay: as §2; format: cell-based; conditions: Homo sapiens, A549, 72 h
[17] = system: Mycobacterium tuberculosis; assay: Antitubercular activity against dormant Mycobacterium tuberculosis H37Ra at 3 ug after 12 days by XTT-Menadione assay; format: functional
Escherichia coli [18] = assay: Antibacterial activity against Escherichia coli at 30 ug after 8 hrs; format: functional
Staphylococcus aureus [19] = assay: Antibacterial activity against Staphylococcus aureus at 10 ug after 12 hrs; format: functional
[20] = system: Mycolicibacterium smegmatis; assay: Antitubercular activity against dormant Mycobacterium smegmatis MC2 155 at 10 ug after 12 days by XTT-Menadione assay; format: functional, str. MC2 155
[21] = system: Mycolicibacterium smegmatis; assay: Antitubercular activity against dormant Mycobacterium smegmatis MC2 155 at 3 ug after 12 days by XTT-Menadione assay; format: functional, str. MC2 155
Bacillus subtilis [22] = assay: Antibacterial activity against Bacillus subtilis at 30 ug after 12 hrs; format: functional
Staphylococcus aureus [23] = assay: Antibacterial activity against Staphylococcus aureus at 3 ug after 12 hrs; format: functional

SMILES | inhibition (INH) [1] [%] | MCC at 96 h [2] [µg/mL] | IC50 (MCF7) [µg/mL] | inhibition (INH) (Bacillus subtilis [3]) [%] | IC50 [4] [µg/mL] | MCC at 120 h [4] [µg/mL] | inhibition (INH) (Pseudomonas fluorescens [5]) [%] | inhibition (INH) (Escherichia coli [6]) [%] | IC50 [7] [µg/mL] | MCC at 120 h [7] [µg/mL] | inhibition (INH) (Escherichia coli [8]) [%] | inhibition (INH) [9] [%] | inhibition (INH) (Staphylococcus aureus [10]) [%] | IC50 [11] [µg/mL] | MIC [11] [µg/mL] | inhibition (INH) (Pseudomonas fluorescens [12]) [%] | inhibition (INH) (Pseudomonas fluorescens [13]) [%] | inhibition (INH) [14] [%] | inhibition (INH) (Bacillus subtilis [15]) [%] | MCC at 72 h [16] [µg/mL] | other results
COc1ccc([C@H]2SCC(=O)N2NC(=O)c2nccnc2N)cc1OC | 90.99 | > 100 | 86.2 (≈ 230 µM) | 8.28 | 85.4 (≈ 228 µM) | > 100 | 30.31 | 50.22 | > 100 | > 100 | 70.93 | 70.88 | 34.19 | 0.718 (≈ 1.91 µM) | 25.8 (≈ 68.8 µM) | 22.77 | 41.19 | 31.62 | 22.5 | > 100 | IC50 (A549): 80 µg/mL (≈ 213 µM); inhibition (INH) [17]: 50.37%; inhibition (INH) (Escherichia coli [18]): 4.659%; inhibition (INH) (Staphylococcus aureus [19]): 6.63%; inhibition (INH) [20]: 35.96%; inhibition (INH) [21]: 50.59%; inhibition (INH) (Bacillus subtilis [22]): 9.92%; inhibition (INH) (Staphylococcus aureus [23]): 26.84%
COc1cc([C@@H]2SCC(=O)N2NC(=O)c2cnc(C)cn2)ccc1O | 91.2 | > 100 | 70.2 (≈ 195 µM) | 14.34 | 86.9 (≈ 241 µM) | > 100 | -2.64 | -54.14 | > 100 | > 100 | 33.04 | 70.7 | -0.17 | 0.997 (≈ 2.77 µM) | 27.9 (≈ 77.3 µM) | 33.16 | 47.41 | -19.0256 | 8.59 | > 100 | IC50 (A549): 62.3 µg/mL (≈ 173 µM); inhibition (INH) [17]: 66.03%; inhibition (INH) (Escherichia coli [18]): -53.27%; inhibition (INH) (Staphylococcus aureus [19]): 23.58%; inhibition (INH) [20]: 33.4%; inhibition (INH) [21]: -19.102%; inhibition (INH) (Bacillus subtilis [22]): 19.67%; inhibition (INH) (Staphylococcus aureus [23]): 42.47%
CCOc1cc([C@H]2SCC(=O)N2NC(=O)c2nccnc2N)ccc1O | 91.26 | > 100 | 80.8 (≈ 215 µM) | 22.27 | 68.9 (≈ 183 µM) | > 100 | -6.51 | -9.65 | > 100 | > 100 | -48.72 | 65 | 24.55 | 3.46 (≈ 9.22 µM) | 28.6 (≈ 76.3 µM) | 20.37 | 40.87 | -15.9058 | -16.24 | > 100 | IC50 (A549): 84.2 µg/mL (≈ 224 µM); inhibition (INH) [17]: 48.5%; inhibition (INH) (Escherichia coli [18]): -33.02%; inhibition (INH) (Staphylococcus aureus [19]): -5.22%; inhibition (INH) [20]: 38.28%; inhibition (INH) [21]: 12.74%; inhibition (INH) (Bacillus subtilis [22]): 9.32%; inhibition (INH) (Staphylococcus aureus [23]): 4.98%
CCOc1cc([C@@H]2SCC(=O)N2NC(=O)c2cnc(C)cn2)ccc1O | 90.6 | > 100 | > 100 | 21.36 | > 100 | > 100 | 12.73 | 16.57 | > 100 | > 100 | -27.76 | 86.08 | 32.72 | 0.337 (≈ 0.9 µM) | 26.6 (≈ 70.9 µM) | 12.75 | 11.17 | 7.269 | 15.08 | > 100 | IC50 (A549): > 100 µg/mL; inhibition (INH) [17]: 78.71%; inhibition (INH) (Escherichia coli [18]): 29.15%; inhibition (INH) (Staphylococcus aureus [19]): -12.53%; inhibition (INH) [20]: 28.89%; inhibition (INH) [21]: 1.412%; inhibition (INH) (Bacillus subtilis [22]): 16.07%; inhibition (INH) (Staphylococcus aureus [23]): -16.05%
